Results as given in ChEMBL document CHEMBL3588794, “Discovery of LRRK2 inhibitors using sequential in silico joint pharmacophore space (JPS) and ensemble docking” (Bioorg Med Chem Lett, 2015).

Tests used:
[1] = biological target: Leucine-rich repeat serine/threonine-protein kinase 2 (Homo sapiens, UniProt Q5S007, G2019S); assay: Inhibition of LRRK2 G2019S mutant (unknown origin)
[2] = biological target: Leucine-rich repeat serine/threonine-protein kinase 2 (Homo sapiens, UniProt Q5S007); assay: Inhibition of wild type LRRK2 (unknown origin) assessed as inhibition of LRRKtide phosphorylation after 120 mins by radiometric assay in presence of [gamma-33P]-ATP
Leucine-rich repeat serine/threonine-protein kinase 2 (Homo sapiens, UniProt Q5S007), sequence (Q5S007 whole entry, the tested form may be a part): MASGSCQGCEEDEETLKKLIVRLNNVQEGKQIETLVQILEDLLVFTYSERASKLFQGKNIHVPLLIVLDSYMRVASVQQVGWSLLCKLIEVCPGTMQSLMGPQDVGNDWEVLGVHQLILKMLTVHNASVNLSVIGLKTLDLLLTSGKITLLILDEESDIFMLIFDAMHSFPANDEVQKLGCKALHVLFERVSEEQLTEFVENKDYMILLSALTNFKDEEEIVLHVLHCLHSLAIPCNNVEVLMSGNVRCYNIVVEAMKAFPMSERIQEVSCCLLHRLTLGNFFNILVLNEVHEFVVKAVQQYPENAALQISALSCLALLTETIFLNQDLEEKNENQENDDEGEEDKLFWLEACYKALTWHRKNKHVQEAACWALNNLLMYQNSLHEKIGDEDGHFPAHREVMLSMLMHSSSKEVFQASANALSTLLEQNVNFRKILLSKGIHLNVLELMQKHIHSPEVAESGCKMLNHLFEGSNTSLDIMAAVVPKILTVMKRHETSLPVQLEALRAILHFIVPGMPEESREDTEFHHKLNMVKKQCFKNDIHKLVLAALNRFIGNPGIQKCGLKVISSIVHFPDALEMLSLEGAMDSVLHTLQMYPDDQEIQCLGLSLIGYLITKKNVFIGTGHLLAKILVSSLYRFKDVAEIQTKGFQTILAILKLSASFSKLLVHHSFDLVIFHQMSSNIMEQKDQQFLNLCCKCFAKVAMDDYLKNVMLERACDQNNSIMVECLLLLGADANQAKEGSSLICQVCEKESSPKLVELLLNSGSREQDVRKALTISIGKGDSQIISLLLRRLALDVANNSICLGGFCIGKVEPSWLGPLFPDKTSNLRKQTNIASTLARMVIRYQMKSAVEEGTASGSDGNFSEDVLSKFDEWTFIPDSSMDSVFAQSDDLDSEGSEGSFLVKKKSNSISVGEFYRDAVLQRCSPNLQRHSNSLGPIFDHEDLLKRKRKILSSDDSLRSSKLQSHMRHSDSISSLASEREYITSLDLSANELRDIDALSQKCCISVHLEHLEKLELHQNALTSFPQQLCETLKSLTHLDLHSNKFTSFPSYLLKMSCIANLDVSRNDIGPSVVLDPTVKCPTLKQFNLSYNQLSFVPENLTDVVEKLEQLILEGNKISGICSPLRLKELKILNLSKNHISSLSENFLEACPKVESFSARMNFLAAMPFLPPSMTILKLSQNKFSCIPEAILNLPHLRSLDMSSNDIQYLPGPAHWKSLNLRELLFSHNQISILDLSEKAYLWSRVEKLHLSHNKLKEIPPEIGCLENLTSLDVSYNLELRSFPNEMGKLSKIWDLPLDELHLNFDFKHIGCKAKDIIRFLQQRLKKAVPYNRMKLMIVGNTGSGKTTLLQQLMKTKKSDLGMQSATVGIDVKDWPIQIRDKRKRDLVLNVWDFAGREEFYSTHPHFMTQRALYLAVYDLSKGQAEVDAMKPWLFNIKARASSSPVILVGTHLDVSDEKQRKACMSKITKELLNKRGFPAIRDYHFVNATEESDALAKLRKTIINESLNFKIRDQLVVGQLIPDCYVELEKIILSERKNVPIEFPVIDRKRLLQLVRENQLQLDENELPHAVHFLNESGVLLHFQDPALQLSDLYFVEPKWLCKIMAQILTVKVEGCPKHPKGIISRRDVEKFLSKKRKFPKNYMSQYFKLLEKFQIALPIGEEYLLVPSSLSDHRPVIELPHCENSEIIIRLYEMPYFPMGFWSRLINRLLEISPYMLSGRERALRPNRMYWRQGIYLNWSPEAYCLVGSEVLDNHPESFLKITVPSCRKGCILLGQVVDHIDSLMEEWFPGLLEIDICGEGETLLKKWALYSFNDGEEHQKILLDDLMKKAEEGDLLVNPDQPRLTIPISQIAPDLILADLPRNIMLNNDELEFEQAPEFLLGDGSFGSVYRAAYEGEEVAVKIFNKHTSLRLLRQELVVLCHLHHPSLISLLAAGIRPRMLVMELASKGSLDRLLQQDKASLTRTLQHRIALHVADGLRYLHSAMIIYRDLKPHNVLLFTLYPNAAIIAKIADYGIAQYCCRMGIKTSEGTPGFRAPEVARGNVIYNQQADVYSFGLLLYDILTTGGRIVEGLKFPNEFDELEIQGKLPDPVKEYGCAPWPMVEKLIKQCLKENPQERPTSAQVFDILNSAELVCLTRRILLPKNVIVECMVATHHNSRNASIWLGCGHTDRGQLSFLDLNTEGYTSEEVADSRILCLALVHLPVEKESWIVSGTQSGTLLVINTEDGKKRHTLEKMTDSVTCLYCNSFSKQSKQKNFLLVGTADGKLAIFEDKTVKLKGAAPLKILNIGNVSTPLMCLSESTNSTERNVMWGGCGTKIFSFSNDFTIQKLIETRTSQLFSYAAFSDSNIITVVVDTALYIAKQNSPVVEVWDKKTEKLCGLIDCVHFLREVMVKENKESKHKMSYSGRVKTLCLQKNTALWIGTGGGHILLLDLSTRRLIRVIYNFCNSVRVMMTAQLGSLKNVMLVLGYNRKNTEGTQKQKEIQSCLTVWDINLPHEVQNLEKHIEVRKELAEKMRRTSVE

[3] = biological target: Tyrosine-protein kinase JAK2 (Homo sapiens) (UniProt O60674); assay: Inhibition of JAK2 JH1 catalytic domain (unknown origin) at 10 uM relative to control
Tyrosine-protein kinase JAK2 (Homo sapiens), sequence (O60674 whole entry, the tested form may be a part): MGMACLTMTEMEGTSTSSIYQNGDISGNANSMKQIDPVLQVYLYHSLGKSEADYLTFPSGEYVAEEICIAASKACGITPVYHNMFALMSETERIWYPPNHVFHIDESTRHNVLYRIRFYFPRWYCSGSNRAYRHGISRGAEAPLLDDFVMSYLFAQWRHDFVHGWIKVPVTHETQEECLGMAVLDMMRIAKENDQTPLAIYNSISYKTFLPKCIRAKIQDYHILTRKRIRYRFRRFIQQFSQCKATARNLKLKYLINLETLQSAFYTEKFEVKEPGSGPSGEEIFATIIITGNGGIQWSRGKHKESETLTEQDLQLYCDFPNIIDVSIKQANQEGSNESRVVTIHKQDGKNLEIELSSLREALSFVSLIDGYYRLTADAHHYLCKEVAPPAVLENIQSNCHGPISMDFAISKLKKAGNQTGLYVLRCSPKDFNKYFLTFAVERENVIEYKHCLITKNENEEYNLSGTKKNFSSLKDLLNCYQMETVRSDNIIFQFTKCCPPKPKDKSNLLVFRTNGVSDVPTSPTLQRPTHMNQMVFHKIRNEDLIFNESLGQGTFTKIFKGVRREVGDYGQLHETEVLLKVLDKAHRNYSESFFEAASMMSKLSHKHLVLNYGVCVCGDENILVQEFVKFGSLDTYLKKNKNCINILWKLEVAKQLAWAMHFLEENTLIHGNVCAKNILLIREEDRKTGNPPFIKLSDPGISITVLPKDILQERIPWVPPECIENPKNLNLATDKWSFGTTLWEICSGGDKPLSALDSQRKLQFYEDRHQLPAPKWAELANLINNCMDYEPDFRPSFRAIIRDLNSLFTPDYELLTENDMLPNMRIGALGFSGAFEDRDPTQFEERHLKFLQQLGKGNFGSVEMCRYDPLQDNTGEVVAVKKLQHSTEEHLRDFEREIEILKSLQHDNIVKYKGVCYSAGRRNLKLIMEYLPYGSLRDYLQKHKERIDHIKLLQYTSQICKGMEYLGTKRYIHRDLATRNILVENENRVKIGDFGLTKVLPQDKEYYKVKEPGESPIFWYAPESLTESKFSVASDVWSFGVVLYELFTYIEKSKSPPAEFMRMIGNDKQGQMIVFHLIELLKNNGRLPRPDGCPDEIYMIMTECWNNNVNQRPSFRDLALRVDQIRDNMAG

Leucine-rich repeat serine/threonine-protein kinase 2 (Homo sapiens, UniProt Q5S007, G2019S), sequence (Q5S007 whole entry G2019S): as the sequence (Q5S007 whole entry, the tested form may be a part) above, with G2019S counted along it

Row | IC50 [1] | IC50 [2] | inhibition [3] | SMILES
1 | 1.9 µM | 4.8 µM | – | CC(c1ccc(NC(=O)c2cc(C3CC3)[nH]n2)cc1)N1CCOCC1 (configuration not stated)
2 | – | – | 74% | N#Cc1ccc(Nc2ccc3[nH]c(=O)[nH]c3c2)c([N+](=O)[O-])c1
3 | 2 µM | 2.8 µM | – | O=C(NCCO)c1ccc(Nc2nc(-c3ccccc3)c3cc(Cl)ccc3n2)cc1
4 | 3.3 µM | 4.6 µM | – | Cc1ccc(NC(=O)c2ccc(CN3CCNCC3)cc2)cc1Nc1nccc(-c2cccnc2)n1
